Assay results published in the supplement of paper PMC10307832.

Assays:
Assay in all cases: relative viability (nuclei count vs DMSO), 5 days (fraction); higher = more cells survive
IPA-3 + Lapatinib = compound: C1=CC=C2C(=C1)C=CC(=C2SSC3=C(C=CC4=CC=CC=C43)O)O [IPA-3] + CS(=O)(=O)CCNCc1ccc(-c2ccc3ncnc(Nc4ccc(OCc5cccc(F)c5)c(Cl)c4)c3c2)o1 [Lapatinib] (partner 2 µM)
In short: (§1)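 One day after seeding in 1536-well plates, lung cancer cell lines were dosed by pin tool. Dosing was either single-drug or a fixed anchor-drug dose plus five library-drug doses (not always all listed) in √10 steps. After 5 days, nuclei were stained in one fix-and-stain step and counted on 4× images, and relative viability is the nuclei count of treated wells over that of vehicle wells, given as the median of duplicate plates.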

Doramapimod + Olaparib = compound: Cc1ccc(-n2nc(C(C)(C)C)cc2NC(=O)Nc2ccc(OCCN3CCOCC3)c3ccccc23)cc1 [Doramapimod] + O=C(c1cc(Cc2n[nH]c(=O)c3ccccc23)ccc1F)N1CCN(C(=O)C2CC2)CC1 [Olaparib] (partner 8 µM)
In short: as §1

RAF265 + Luminespib = compound: Cn1c(Nc2ccc(C(F)(F)F)cc2)nc2cc(Oc3ccnc(-c4ncc(C(F)(F)F)[nH]4)c3)ccc21 [RAF265] + CCNC(=O)c1noc(-c2cc(C(C)C)c(O)cc2O)c1-c1ccc(CN2CCOCC2)cc1 [Luminespib] (partner 0.01 µM)
In short: as §1

RAF265 + Dasatinib = compound: Cn1c(Nc2ccc(C(F)(F)F)cc2)nc2cc(Oc3ccnc(-c4ncc(C(F)(F)F)[nH]4)c3)ccc21 [RAF265] + Cc1nc(Nc2ncc(C(=O)Nc3c(C)cccc3Cl)s2)cc(N2CCN(CCO)CC2)n1 [Dasatinib] (partner 0.075 µM)
In short: as §1

UMC-11 gave a relative viability (IPA-3 + Lapatinib; first compound 0.2 µM) of 0.944, a relative viability (IPA-3 + Lapatinib; first compound 0.6325 µM) of 1.1 and a relative viability (IPA-3 + Lapatinib; first compound 2 µM) of 0.956. For the same cell line, the relative viability (IPA-3 + Lapatinib; first compound 6.325 µM) was 0.804, the relative viability (IPA-3 + Lapatinib; first compound 20 µM) was 1.06 and the relative viability (Doramapimod + Olaparib; first compound 0.02 µM) was 0.353. It also gave a relative viability (Doramapimod + Olaparib; first compound 0.06325 µM) of 0.348, a relative viability (Doramapimod + Olaparib; first compound 0.2 µM) of 0.274 and a relative viability (Doramapimod + Olaparib; first compound 0.6325 µM) of 0.963. For the same cell line, the relative viability (Doramapimod + Olaparib; first compound 2 µM) was 0.365, the relative viability (RAF265 + Luminespib; first compound 0.01 µM) was 0.984 and the relative viability (RAF265 + Luminespib; first compound 0.03162 µM) was 1.01. It also gave a relative viability (RAF265 + Luminespib; first compound 0.1 µM) of 1.06, a relative viability (RAF265 + Luminespib; first compound 0.3162 µM) of 1.01 and a relative viability (RAF265 + Luminespib; first compound 1 µM) of 0.936. For the same cell line, the relative viability (RAF265 + Dasatinib; first compound 0.01 µM) was 0.443, the relative viability (RAF265 + Dasatinib; first compound 0.03162 µM) was 0.442 and the relative viability (RAF265 + Dasatinib; first compound 0.1 µM) was 0.457. The relative viability (RAF265 + Dasatinib; first compound 0.3162 µM) was 0.444 and the relative viability (RAF265 + Dasatinib; first compound 1 µM) was 0.4.
